{
  "source": "ChEMBL document CHEMBL1201862",
  "about": "“PubChem BioAssay data set” (2004)",
  "key": {"[1]": {"target": "T1, Apoptotic protease-activating factor 1 (Homo sapiens, UniProt O14727)", "T1 sequence (O14727 whole entry)": "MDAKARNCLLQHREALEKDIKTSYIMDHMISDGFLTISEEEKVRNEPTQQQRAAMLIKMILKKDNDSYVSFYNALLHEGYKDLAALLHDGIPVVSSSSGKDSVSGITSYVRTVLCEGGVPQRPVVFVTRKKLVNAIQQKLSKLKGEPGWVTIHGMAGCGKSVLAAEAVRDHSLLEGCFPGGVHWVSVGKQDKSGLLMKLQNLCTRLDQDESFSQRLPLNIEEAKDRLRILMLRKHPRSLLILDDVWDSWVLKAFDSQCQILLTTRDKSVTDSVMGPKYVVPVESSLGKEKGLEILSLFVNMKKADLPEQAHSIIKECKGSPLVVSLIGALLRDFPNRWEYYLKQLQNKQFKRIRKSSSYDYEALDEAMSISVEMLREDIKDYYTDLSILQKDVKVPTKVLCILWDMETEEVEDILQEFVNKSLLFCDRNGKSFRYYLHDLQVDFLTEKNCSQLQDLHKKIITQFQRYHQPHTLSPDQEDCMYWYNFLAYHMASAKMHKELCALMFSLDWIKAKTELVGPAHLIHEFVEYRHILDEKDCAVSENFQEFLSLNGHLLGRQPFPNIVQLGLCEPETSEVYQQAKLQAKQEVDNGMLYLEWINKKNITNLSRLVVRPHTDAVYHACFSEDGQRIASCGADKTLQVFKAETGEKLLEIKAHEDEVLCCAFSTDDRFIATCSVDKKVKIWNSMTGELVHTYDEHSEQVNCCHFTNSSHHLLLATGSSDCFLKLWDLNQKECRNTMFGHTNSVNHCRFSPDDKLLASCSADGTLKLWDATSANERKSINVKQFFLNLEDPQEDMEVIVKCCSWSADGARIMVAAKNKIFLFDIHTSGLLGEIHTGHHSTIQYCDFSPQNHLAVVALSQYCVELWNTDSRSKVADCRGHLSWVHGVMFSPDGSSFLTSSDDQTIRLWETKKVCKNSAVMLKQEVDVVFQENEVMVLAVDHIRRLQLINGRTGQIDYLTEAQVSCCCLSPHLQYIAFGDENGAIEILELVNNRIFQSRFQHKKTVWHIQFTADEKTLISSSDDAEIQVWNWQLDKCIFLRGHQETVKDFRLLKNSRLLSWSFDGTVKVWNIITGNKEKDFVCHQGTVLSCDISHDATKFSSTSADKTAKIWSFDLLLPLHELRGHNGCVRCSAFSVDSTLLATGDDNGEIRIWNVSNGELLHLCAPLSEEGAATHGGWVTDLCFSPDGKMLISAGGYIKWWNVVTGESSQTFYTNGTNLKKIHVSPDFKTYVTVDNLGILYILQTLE", "assay_type": "functional"}, "[2]": {"target": "T2, Histone-lysine N-methyltransferase NSD2 (Homo sapiens, UniProt O96028)", "T2 sequence (O96028 whole entry)": "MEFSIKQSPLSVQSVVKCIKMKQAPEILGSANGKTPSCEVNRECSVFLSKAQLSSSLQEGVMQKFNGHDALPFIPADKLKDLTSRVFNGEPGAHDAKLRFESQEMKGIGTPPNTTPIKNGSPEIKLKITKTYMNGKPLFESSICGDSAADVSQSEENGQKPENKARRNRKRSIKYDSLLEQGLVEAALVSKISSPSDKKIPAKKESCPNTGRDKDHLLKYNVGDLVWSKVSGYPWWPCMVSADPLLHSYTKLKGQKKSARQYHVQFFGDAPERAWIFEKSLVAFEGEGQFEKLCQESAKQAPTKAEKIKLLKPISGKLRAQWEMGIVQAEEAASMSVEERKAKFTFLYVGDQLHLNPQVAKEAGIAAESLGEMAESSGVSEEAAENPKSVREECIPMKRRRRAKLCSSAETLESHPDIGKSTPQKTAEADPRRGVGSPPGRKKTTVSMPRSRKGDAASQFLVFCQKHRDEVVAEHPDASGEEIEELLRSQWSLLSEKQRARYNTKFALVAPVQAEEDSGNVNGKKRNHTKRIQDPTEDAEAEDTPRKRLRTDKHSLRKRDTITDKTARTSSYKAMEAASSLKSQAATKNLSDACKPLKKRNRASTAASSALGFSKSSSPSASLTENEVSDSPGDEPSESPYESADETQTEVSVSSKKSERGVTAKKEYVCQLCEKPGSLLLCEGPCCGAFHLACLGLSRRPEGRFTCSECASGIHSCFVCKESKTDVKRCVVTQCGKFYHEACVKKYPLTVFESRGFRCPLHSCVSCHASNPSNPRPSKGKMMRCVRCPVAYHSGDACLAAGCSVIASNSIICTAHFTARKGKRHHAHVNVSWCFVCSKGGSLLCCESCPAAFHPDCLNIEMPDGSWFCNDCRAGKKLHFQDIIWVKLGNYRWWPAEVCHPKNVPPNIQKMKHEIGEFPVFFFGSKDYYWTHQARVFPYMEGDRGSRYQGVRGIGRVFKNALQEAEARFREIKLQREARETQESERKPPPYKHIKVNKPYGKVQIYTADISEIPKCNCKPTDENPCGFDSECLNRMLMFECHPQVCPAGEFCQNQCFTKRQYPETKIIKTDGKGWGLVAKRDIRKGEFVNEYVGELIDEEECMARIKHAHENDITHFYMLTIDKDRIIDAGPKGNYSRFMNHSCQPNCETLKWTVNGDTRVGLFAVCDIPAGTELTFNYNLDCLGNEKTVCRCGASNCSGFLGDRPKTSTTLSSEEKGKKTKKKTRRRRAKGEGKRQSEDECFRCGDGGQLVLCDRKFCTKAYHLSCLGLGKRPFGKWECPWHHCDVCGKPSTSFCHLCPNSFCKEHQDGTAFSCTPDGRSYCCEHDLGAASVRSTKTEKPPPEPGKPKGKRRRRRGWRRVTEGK", "assay_type": "biochemical"}, "[3]": {"experiment": "THP-1 cell cytotoxicity, dose response, cytotoxicity control for non-replicating M. tuberculosis project (AID 489025)", "assay_type": "functional"}, "[4]": {"tested_on": "Streptococcus sp. 'group A'", "experiment": "Streptococcus pyogenes SK(-)GAS viability under kanamycin – luminescence, BacTiterGlo, confirmation, counter-screen for streptokinase expression inhibitor project, dose response (AID 1900)", "assay_type": "functional, organism-based"}, "Streptococcus": {"tested_on": "Streptococcus", "experiment": "GAS UMAA2166 growth inhibition – luminescence, BacTiterGlo, counter-screen for streptokinase expression inhibitor project, dose response (AID 1915);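 also: potency for reduction of bacterial viability or growth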", "assay_type": "functional, organism-based"}, "[5]": {"target": "Dual specificity tyrosine-phosphorylation-regulated kinase 1A (Rattus norvegicus, UniProt Q63470)", "assay_type": "biochemical, Homo sapiens"}, "[6]": {"target": "cAMP-dependent protein kinase catalytic subunit PRKX (Homo sapiens, UniProt P51817)", "sequence (P51817 whole entry)": "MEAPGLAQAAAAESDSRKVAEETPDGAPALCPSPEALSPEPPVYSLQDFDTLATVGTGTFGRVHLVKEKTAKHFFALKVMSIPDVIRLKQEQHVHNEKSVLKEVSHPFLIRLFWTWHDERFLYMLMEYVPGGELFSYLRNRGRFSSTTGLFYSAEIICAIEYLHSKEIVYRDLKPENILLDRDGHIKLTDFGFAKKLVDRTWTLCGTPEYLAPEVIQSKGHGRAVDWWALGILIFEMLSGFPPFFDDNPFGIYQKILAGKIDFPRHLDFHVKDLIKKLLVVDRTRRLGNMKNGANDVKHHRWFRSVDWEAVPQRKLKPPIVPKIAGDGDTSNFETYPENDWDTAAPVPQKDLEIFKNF", "assay_type": "functional"}, "[7]": {"target": "Interleukin-1 receptor-associated kinase 1 (Homo sapiens, UniProt P51617)", "sequence (P51617 whole entry)": "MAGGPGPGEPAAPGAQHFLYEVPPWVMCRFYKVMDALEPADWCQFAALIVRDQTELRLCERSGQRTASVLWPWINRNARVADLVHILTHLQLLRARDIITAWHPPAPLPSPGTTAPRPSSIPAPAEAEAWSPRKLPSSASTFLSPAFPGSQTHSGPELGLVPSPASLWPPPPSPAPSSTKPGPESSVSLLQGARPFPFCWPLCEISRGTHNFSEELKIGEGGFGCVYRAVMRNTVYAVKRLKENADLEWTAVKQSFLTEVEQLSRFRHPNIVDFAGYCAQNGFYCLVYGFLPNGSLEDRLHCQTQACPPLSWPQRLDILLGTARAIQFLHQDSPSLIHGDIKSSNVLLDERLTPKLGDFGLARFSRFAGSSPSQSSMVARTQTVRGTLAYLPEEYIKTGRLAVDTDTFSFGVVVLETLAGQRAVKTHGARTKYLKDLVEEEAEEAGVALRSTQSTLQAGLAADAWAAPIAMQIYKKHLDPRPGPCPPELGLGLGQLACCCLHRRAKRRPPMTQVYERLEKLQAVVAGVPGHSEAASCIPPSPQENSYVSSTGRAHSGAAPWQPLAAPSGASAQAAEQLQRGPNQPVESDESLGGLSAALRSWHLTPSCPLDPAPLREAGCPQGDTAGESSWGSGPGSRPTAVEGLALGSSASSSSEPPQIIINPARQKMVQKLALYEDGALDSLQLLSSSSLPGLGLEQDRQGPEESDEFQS", "assay_type": "functional"}, "[8]": {"target": "Serine/threonine-protein kinase PLK1 (Homo sapiens, UniProt P53350)", "sequence (P53350 whole entry)": "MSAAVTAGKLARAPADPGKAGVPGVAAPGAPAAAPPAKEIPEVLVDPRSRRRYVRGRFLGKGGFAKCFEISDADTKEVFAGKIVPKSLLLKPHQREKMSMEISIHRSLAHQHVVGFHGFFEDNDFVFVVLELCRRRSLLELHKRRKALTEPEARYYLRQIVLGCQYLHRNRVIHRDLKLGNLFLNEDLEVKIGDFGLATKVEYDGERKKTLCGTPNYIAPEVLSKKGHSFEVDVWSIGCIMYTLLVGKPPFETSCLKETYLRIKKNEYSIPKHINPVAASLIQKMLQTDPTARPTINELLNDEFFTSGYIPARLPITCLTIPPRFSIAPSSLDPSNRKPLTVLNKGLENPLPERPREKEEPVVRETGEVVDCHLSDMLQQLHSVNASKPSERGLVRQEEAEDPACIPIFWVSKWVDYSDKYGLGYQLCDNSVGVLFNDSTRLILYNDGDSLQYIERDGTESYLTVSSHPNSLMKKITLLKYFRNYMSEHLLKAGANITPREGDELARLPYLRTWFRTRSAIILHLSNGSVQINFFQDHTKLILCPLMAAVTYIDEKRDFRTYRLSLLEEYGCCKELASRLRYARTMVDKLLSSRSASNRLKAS", "assay_type": "functional"}},
  "note": "The source made the active and inactive calls.",
  "data": [
    {"compound": "Cc1ccc(C(=O)NC2(O)C(=O)c3ccccc3C2=O)cc1C", "values": [
      {"measurement": "IC50", "setting": "[1]", "value": "5.13 µM (active)"},
      {"measurement": "AC50", "setting": "[2]", "value": "6.83 µM (active)"}
    ]},
    {"compound": "O=[N+]([O-])c1c(Nc2ccccn2)cc(Cl)c2nonc12", "values": [
      {"measurement": "CC50", "setting": "[3]", "value": "20.3 µM (active)"}
    ]},
    {"compound": "CC[C@@H](C)[C@H](CNC)NC[C@@H](Cc1cccc2ccccc12)NCCc1cccc(C(F)(F)F)c1", "values": [
      {"measurement": "EC50", "setting": "[4]", "value": "4.8 µM (active)"},
      {"measurement": "EC50", "setting": "Streptococcus", "value": "7.12 µM (active)"},
      {"measurement": "IC50", "setting": "[1]", "value": "44.1 µM (active)"},
      {"measurement": "AC50", "setting": "[5]", "value": "79 µM (active)"}
    ]},
    {"compound": "Cc1ccc(S(=O)(=O)/N=C2\\C=C(Nc3cccc(C(=O)O)c3)C(=O)c3ccccc32)cc1", "values": [
      {"measurement": "EC50", "setting": "[4]", "value": "4.62 µM (active)"},
      {"measurement": "EC50", "setting": "Streptococcus", "value": "14.3 µM (active)"},
      {"measurement": "IC50", "setting": "[1]", "value": "7.32 µM (active)"},
      {"measurement": "AC50", "setting": "[5]", "value": "2.57 µM (active)"},
      {"measurement": "AC50", "setting": "[2]", "value": "0.422 µM (active)"}
    ]},
    {"compound": "CC(C)(CO)CNc1nccc(-c2c(-c3ccc(F)cc3)nc3c(CC4CC4)nccn23)n1", "values": [
      {"measurement": "Ki", "setting": "[6]", "value": "> 1.58 µM (inactive)"},
      {"measurement": "Ki", "setting": "[7]", "value": "> 7.94 µM (inactive)"},
      {"measurement": "Ki", "setting": "[8]", "value": "> 7.94 µM (inactive)"}
    ]}
  ]
}
